{"source": "ChEMBL document CHEMBL5678805", "about": "“Intermittent administration of MEK inhibitor GDC-0973 plus PI3K inhibitor GDC-0941 triggers robust apoptosis and tumor growth inhibition” (Cancer Res, 2012)", "key": {"A2058 [1]": {"tested_on": "A2058", "assay": "Antitumor activity against human A2058 cells harboring BRAF V600E/PTEN deletion mutant xenografted in mouse assessed as decrease in tumor volume at 10 mg/kg, po administered once weekly for 21 days in presence of GDC-0973 by digital calipers analysis", "format": "functional, organism-based", "conditions": "time 21.0 day"}, "A2058 [2]": {"tested_on": "A2058", "assay": "Antitumor activity against human A2058 cells harboring BRAF V600E/PTEN deletion mutant xenografted in mouse assessed as decrease in tumor volume at 1.5 mg/kg, po administered once daily for 21 days in presence of GDC-0973 by digital calipers analysis", "format": "functional, organism-based", "conditions": "time 21.0 day"}, "DLD-1 [3]": {"tested_on": "DLD-1", "assay": "Antitumor activity against human DLD-1 cells xenografted in mouse assessed as tumor growth inhibition at 50 mg/kg, po administered every third day for 21 days in presence of (S)-(3,4-difluoro-2-((2-fluoro-4-iodophenyl)amino)phenyl)(3-hydroxy-3-(piperidin-2-yl)azetidin-1-yl)methanone", "format": "functional", "conditions": "DLD-1, 504 h, time 21 day, read-out: TGI"}, "[4]": {"assay": "Antitumor activity against human A375.X1 cells xenografted in mouse assessed as tumor growth inhibition at 100 mg/kg, po administered once a day for 21 days in presence of (S)-(3,4-difluoro-2-((2-fluoro-4-iodophenyl)amino)phenyl)(3-hydroxy-3-(piperidin-2-yl)azetidin-1-yl)methanone", "format": "functional", "conditions": "A375.X1, 504 h, time 21 day, read-out: TGI"}, "[5]": {"assay": "Antitumor activity against human A375.X1 cells xenografted in mouse assessed as tumor growth inhibition at 30 mg/kg, po administered once a day for 21 days in presence of (S)-(3,4-difluoro-2-((2-fluoro-4-iodophenyl)amino)phenyl)(3-hydroxy-3-(piperidin-2-yl)azetidin-1-yl)methanone", "format": "functional", "conditions": "A375.X1, 504 h, time 21 day, read-out: TGI"}, "NCI-H2122 [6]": {"tested_on": "NCI-H2122", "assay": "Antitumor activity against human NCI-H2122 cells xenografted in mouse assessed as tumor growth inhibition at 150 mg/kg, po administered […] for 21 days in presence of (S)-(3,4-difluoro-2-((2-fluoro-4-iodophenyl)amino)phenyl)(3-hydroxy-3-(piperidin-2-yl)azetidin-1-yl)methanone", "format": "functional", "conditions": "NCI-H2122, 504 h, time 21 day, read-out: TGI"}, "A2058 [7]": {"tested_on": "A2058", "assay": "Antitumor activity against human A2058 cells xenografted in mouse assessed as tumor growth inhibition at 30 mg/kg, po administered once a day for 21 days in presence of (S)-(3,4-difluoro-2-((2-fluoro-4-iodophenyl)amino)phenyl)(3-hydroxy-3-(piperidin-2-yl)azetidin-1-yl)methanone", "format": "functional", "conditions": "A2058, 504 h, time 21 day, read-out: TGI"}, "NCI-H2122 [8]": {"tested_on": "NCI-H2122", "assay": "Antitumor activity against human NCI-H2122 cells xenografted in mouse assessed as tumor growth inhibition at 30 mg/kg, po administered once a day for 21 days in presence of (S)-(3,4-difluoro-2-((2-fluoro-4-iodophenyl)amino)phenyl)(3-hydroxy-3-(piperidin-2-yl)azetidin-1-yl)methanone", "format": "functional", "conditions": "NCI-H2122, 504 h, time 21 day, read-out: TGI"}, "A2058 [9]": {"tested_on": "A2058", "assay": "Antitumor activity against human A2058 cells xenografted in mouse assessed as tumor growth inhibition at 100 mg/kg, po administered once a day for 21 days", "format": "functional", "conditions": "A2058, 504 h, time 21 day, read-out: TGI"}, "A2058 [10]": {"tested_on": "A2058", "assay": "Antitumor activity against human A2058 cells xenografted in mouse assessed as tumor growth inhibition at 30 mg/kg, po administered once a day for 21 days", "format": "functional", "conditions": "A2058, 504 h, time 21 day, read-out: TGI"}, "NCI-H2122 [11]": {"tested_on": "NCI-H2122", "assay": "Antitumor activity against human NCI-H2122 cells xenografted in mouse assessed as tumor growth inhibition at 100 mg/kg, po administered once a day for 21 days in presence of (S)-(3,4-difluoro-2-((2-fluoro-4-iodophenyl)amino)phenyl)(3-hydroxy-3-(piperidin-2-yl)azetidin-1-yl)methanone", "format": "functional", "conditions": "NCI-H2122, 504 h, time 21 day, read-out: TGI"}, "NCI-H2122 [12]": {"tested_on": "NCI-H2122", "assay": "Antitumor activity against human NCI-H2122 cells xenografted in mouse assessed as tumor growth inhibition at 100 mg/kg, po administered once a day for 21 days", "format": "functional", "conditions": "NCI-H2122, 504 h, time 21 day, read-out: TGI"}, "[13]": {"assay": "Antitumor activity against human A375.X1 cells xenografted in mouse assessed as tumor growth inhibition at 150 mg/kg, po administered every third day for 21 days", "format": "functional", "conditions": "A375.X1, 504 h, time 21 day, read-out: TGI"}, "NCI-H2122 [14]": {"tested_on": "NCI-H2122", "assay": "Antitumor activity against human NCI-H2122 cells xenografted in mouse assessed as tumor growth inhibition at 30 mg/kg, po administered once a day for 21 days", "format": "functional", "conditions": "NCI-H2122, 504 h, time 21 day, read-out: TGI"}, "[15]": {"assay": "Antitumor activity against human A375.X1 cells xenografted in mouse assessed as tumor growth inhibition at 150 mg/kg, po administered every third day for 21 days in presence of (S)-(3,4-difluoro-2-((2-fluoro-4-iodophenyl)amino)phenyl)(3-hydroxy-3-(piperidin-2-yl)azetidin-1-yl)methanone", "format": "functional", "conditions": "A375.X1, 504 h, time 21 day, read-out: TGI"}, "A2058 [16]": {"tested_on": "A2058", "assay": "Antitumor activity against human A2058 cells xenografted in mouse assessed as tumor growth inhibition at 150 mg/kg, po administered every third day for 21 days", "format": "functional", "conditions": "A2058, 504 h, time 21 day, read-out: TGI"}, "[17]": {"assay": "Antitumor activity against human A375.X1 cells xenografted in mouse assessed as tumor growth inhibition at 30 mg/kg, po administered once a day for 21 days", "format": "functional", "conditions": "A375.X1, 504 h, time 21 day, read-out: TGI"}, "DLD-1 [18]": {"tested_on": "DLD-1", "assay": "Antitumor activity against human DLD-1 cells xenografted in mouse assessed as tumor growth inhibition at 30 mg/kg, po administered once a day for 21 days in presence of (S)-(3,4-difluoro-2-((2-fluoro-4-iodophenyl)amino)phenyl)(3-hydroxy-3-(piperidin-2-yl)azetidin-1-yl)methanone", "format": "functional", "conditions": "DLD-1, 504 h, time 21 day, read-out: TGI"}, "DLD-1 [19]": {"tested_on": "DLD-1", "assay": "Antitumor activity against human DLD-1 cells xenografted in mouse assessed as tumor growth inhibition at 50 mg/kg, po administered every third day for 21 days", "format": "functional", "conditions": "DLD-1, 504 h, time 21 day, read-out: TGI"}, "NCI-H2122 [20]": {"tested_on": "NCI-H2122", "assay": "Antitumor activity against human NCI-H2122 cells xenografted in mouse assessed as tumor growth inhibition at 150 mg/kg, po administered […] for 21 days", "format": "functional", "conditions": "NCI-H2122, 504 h, time 21 day, read-out: TGI"}, "DLD-1 [21]": {"tested_on": "DLD-1", "assay": "Antitumor activity against human DLD-1 cells xenografted in mouse assessed as tumor growth inhibition at 30 mg/kg, po administered once a day for 21 days", "format": "functional", "conditions": "DLD-1, 504 h, time 21 day, read-out: TGI"}, "[22]": {"assay": "Antitumor activity against human A375.X1 cells xenografted in mouse assessed as tumor growth inhibition at 100 mg/kg, po administered once a day for 21 days", "format": "functional", "conditions": "A375.X1, 504 h, time 21 day, read-out: TGI"}}, "note": "Calls of active or inactive are those of the source. The calls are words filed in the database; no cut-off is given here.", "data": [{"smiles": "Cc1c(CN2CCN(C(=O)[C@H](C)O)CC2)sc2c(N3CCOCC3)nc(-c3cnc(N)nc3)nc12", "values": [{"measurement": "Activity", "setting": "A2058 [1]", "value": "Active"}, {"measurement": "Activity", "setting": "A2058 [2]", "value": "Active"}]}, {"smiles": "CS(=O)(=O)N1CCN(Cc2cc3nc(-c4cccc5[nH]ncc45)nc(N4CCOCC4)c3s2)CC1", "note": "[PICTILISIB]", "values": [{"measurement": "inhibition in vivo at 50 mg/kg", "setting": "DLD-1 [3]", "value": 72, "unit": "%"}, {"measurement": "inhibition in vivo at 100 mg/kg", "setting": "[4]", "value": 122, "unit": "%"}, {"measurement": "inhibition in vivo at 30 mg/kg", "setting": "[5]", "value": 69, "unit": "%"}, {"measurement": "inhibition in vivo at 150 mg/kg", "setting": "NCI-H2122 [6]", "value": 87, "unit": "%"}, {"measurement": "inhibition in vivo at 30 mg/kg", "setting": "A2058 [7]", "value": 73, "unit": "%"}, {"measurement": "inhibition in vivo at 30 mg/kg", "setting": "NCI-H2122 [8]", "value": 75, "unit": "%"}, {"measurement": "inhibition in vivo at 100 mg/kg", "setting": "A2058 [9]", "value": 58, "unit": "%"}, {"measurement": "inhibition in vivo at 30 mg/kg", "setting": "A2058 [10]", "value": 24, "unit": "%"}, {"measurement": "inhibition in vivo at 100 mg/kg", "setting": "NCI-H2122 [11]", "value": 156, "unit": "%"}, {"measurement": "inhibition in vivo at 100 mg/kg", "setting": "NCI-H2122 [12]", "value": 91, "unit": "%"}, {"measurement": "inhibition in vivo at 150 mg/kg", "setting": "[13]", "value": 57, "unit": "%"}, {"measurement": "inhibition in vivo at 30 mg/kg", "setting": "NCI-H2122 [14]", "value": 63, "unit": "%"}, {"measurement": "inhibition in vivo at 150 mg/kg", "setting": "[15]", "value": 118, "unit": "%"}, {"measurement": "inhibition in vivo at 150 mg/kg", "setting": "A2058 [16]", "value": 50, "unit": "%"}, {"measurement": "inhibition in vivo at 30 mg/kg", "setting": "[17]", "value": 23, "unit": "%"}, {"measurement": "inhibition in vivo at 30 mg/kg", "setting": "DLD-1 [18]", "value": 88, "unit": "%"}, {"measurement": "inhibition in vivo at 50 mg/kg", "setting": "DLD-1 [19]", "value": 13, "unit": "%"}, {"measurement": "inhibition in vivo at 150 mg/kg", "setting": "NCI-H2122 [20]", "value": 43, "unit": "%"}, {"measurement": "inhibition in vivo at 30 mg/kg", "setting": "DLD-1 [21]", "value": 63, "unit": "%"}, {"measurement": "inhibition in vivo at 100 mg/kg", "setting": "[22]", "value": -2, "unit": "%"}]}]}
